From patent US8840934B2 (Rainbow Pharmaceutical SA, priority 2009, dated 2014)

Experiments:
TNF-α = experiment: Serum TNF-α (ELISA) in TAA-treated Quinster rats given ammonium chloride per os; assay type: in vivo; settings: 12 hours post the third TAA injection, mean ± SD
Method: (§1) Thioacetamid (TAA) was given to adult male Quinster rats with a course of 400 mg TAA/kg B.W. every 24 hours and for 3 consecutive days. […] The animals were sacrificed in 6 and 12 hours after the 3rd treatment with TTA. TNF-α and IL-6 levels were measured in serum (ELISA test) after 12 hours post the third TAA injection and the results are reported in the following table.

hepatitis C = experiment: Clinical treatment of a patient with hepatitis C, viral charge; assay type: in vivo, human; settings: Patient B, 3 gr/day by the protocol, before treatment 1.65 × 10^8 IU/ml
Method: (§2) The above protocol of administration can be repeated several times until the completion of the treatment as judged by the clinician. For example, 21 cycles of treatment are performed, which complies with the natural time of regeneration of liver after a partial hepatectomy in patients. Therefore, the duration of the treatment can be from 1 to 6 months or from 3 to 4 months for patients with partial necrosis.
(§3) Patients were treated according to the above described protocol, using a dose of 3 gr/day.

Hepatitis Virus = experiment: Use of NH4Cl in treating hepatitis virus, reduction of viral charge across patients; assay type: in vivo; settings: in humans; Patients A and B, 3 months of treatment, 3 gr/day
Method: as §3

IL-6 = experiment: Serum IL-6 (ELISA) in TAA-treated Quinster rats given ammonium chloride per os; assay type: in vivo; settings: 12 hours post the third TAA injection, mean ± SD
Method: as §1

hyaluronic acid = experiment: Hyaluronic acid levels in treated Quinster rats; assay type: in vivo
Source text: The levels of hyaluronic acid in patients with high-grade hepatic damage are usually high, but they appeared decreased in the treated Quinster rats. Furthermore, additional biochemical factors appeared improved.

chronic hepatitis B = experiment: Clinical treatment of a patient with chronic hepatitis B, viral charge; assay type: in vivo, human; settings: 3 gr/day by the protocol, before treatment 1.65 × 10^6 IU/ml
Method: as §2, §3

In the case of `Cl.N` [NH4Cl, ammonium chloride], the TNF-α (TNF-α; Group II, Control 21 ± 4, Group I 65 ± 15) was 52 ± 17 pg/dL, the TNF-α (TNF-α; Group III) was 32 ± 6 pg/dL and the TNF-α (TNF-α; Group IV) was 45 ± 9 pg/dL. For the same compound, the “Viral charge after 3 months of treatment” value (hepatitis C) was 1.65 × 10^6 IU/ml, the “factor of reduction of the viral charge” value (Hepatitis Virus) was “at least 10^2” and the IL-6 (IL-6; Group II, at least 8 animals per group, Control 11 ± 5, Group I 58 ± 9) was 69 ± 12 pg/dL. For the same compound, the IL-6 (IL-6; Group III) was 92 ± 8 pg/dL, the IL-6 (IL-6; Group IV) was 73 ± 12 pg/dL and the “levels of hyaluronic acid” value (hyaluronic acid) was “decreased”. The “Viral charge after 3 months of treatment” value (chronic hepatitis B) was 1.65 × 10^3 IU/ml.
